Data on 1 molecule can be found in patent EP4772500A1, “NOVEL ISOXAZOLE COMPOUND AS TM4SF5-SPECIFIC INHIBITOR AND USE THEREOF” (Seoul National University R&DB Foundation, priority 2023, dated 2025).

The assay has as its target T1, Strep-TM4SF5 obtained from HEK293FT (Homo sapiens, UniProt O14894).
T1 construct: expressed in transfected cells; host or cells: HEK293FT, transient transfection (48 h); protein captured on streptavidin agarose from the cell extract
T1 sequence (O14894 1-197): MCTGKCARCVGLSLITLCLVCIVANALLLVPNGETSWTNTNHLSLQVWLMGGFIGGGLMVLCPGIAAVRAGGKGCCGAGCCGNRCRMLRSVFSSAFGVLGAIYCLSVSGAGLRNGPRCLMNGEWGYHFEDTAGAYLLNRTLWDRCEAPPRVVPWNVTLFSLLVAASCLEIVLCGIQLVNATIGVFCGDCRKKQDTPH
Description: Binding of 14C-labelled ST-5-002 to pulled-down Strep-TM4SF5. As to the method:
For Huh7KO cells, stable cell lines were established by infecting with a retrovirus inducing the expression of pBabe-HA-EV or pBabe-HA-TM4SF5. Cell extracts were obtained, and extracts containing 0.2 or 0.25 mg of protein were reacted with an anti-HA antibody and HA-tagged TM4SF5, or with streptavidin agarose resin for Strep-PD-L1 or Strep-TM4SF5 at 4°C for 2 hours for pulldown. Subsequently, in the presence or absence of cold ST-5-002 (400 µM), the samples were treated with ^14C-labelled ST-5-002 (10 or 25 µM) and reacted at 4°C for 1 hour, after which radioactive isotope values were repeatedly measured using a TriCarb scintillation counter (PerkinElmer, Waltham, MA).
After culturing HEK293FT cells transfected with Strep-EV or Strep-TM4SF5 expression vectors, or Huh7KO cells stably expressing pBabe-HA-EV or pBabe-HA-TM4SF5, cell extracts were obtained. Extracts containing 1 mg of protein were pulled down by reacting with streptavidin agarose resin for Strep-tagged TM4SF5 or with an anti-HA antibody for HA-tagged TM4SF5 at 4°C for 4 hours. The pulled-down proteins were treated with ^14C-labelled ST-5-002 at various concentrations (10 nM, 100 nM, 1 µM, 5 µM, 10 µM, 50 µM) and reacted at 4°C for 1 hour, after which radioactive isotope values were repeatedly measured using a TriCarb scintillation counter (PerkinElmer, Waltham, MA). The EC50 was calculated by normalizing the average radioactive isotope value of TM4SF5 obtained through the measurements by dividing it by the average value of EV.
(a) Expression vectors for a control vector, TM4SF1, TM4SF5 WT, and R113Q, C118/145A, H127A, and N138A mutants of TM4SF5 were injected into the HEK293FT cell line, which was confirmed not to express TM4SF5, and allowed to express for 48 hours. (b) Huh7KO cell lines, in which TM4SF5 was knocked out in Huh7, were stably infected with a retrovirus encoding pBabe-EV or pBabe-TM4SF5-HA. […] For the experimental samples of each condition, radioactive isotope values were repeatedly measured using a TriCarb scintillation counter (PerkinElmer, Waltham, MA).

Structures are written as SMILES. Read-outs that look alike come from different tables or passages of the source.

`Cc1ccc(C(=O)Nc2ccc(-c3cc(-c4ccc(O)cc4)no3)cc2)cc1` [ST-5-002, N-(4-(3-(4-hydroxyphenyl)isoxazole-5-yl)phenyl)-4-methylbenzamide]: the EC50 (as a rule, the concentration needed to bring the measured effect to its halfway point) runs as follows: (14C-labelled ST-5-002, Strep-TM4SF5, 4°C, 1 hour (FIG. 19a), read-out: EC50 of binding to TM4SF5) 8.87 µM; (range depending on the cell source and the type of tag (Strep-TM4SF5 and HA-TM4SF5), read-out: EC50 values of binding to TM4SF5) 0.85 to 8.8 µM. The “binding of 14C-labelled ST-5-002 compared to the control and TM4SF1” value (Strep-TM4SF5 from HEK293FT (FIG. 19a)) is on record as “bound”.
